Assay results: ChEMBL document CHEMBL4402613, “Targeting ALK2: An Open Science Approach to Developing Therapeutics for the Treatment of Diffuse Intrinsic Pontine Glioma” (J Med Chem, 2020)
Active and inactive are the calls of the source. The calls are words filed in the database; no cut-off is given here.

Tests used:
[1] = molecular target: T1, TGF-beta receptor type-1 (Homo sapiens, UniProt P36897); format: cell-based, HEK293
T1 sequence (P36897 whole entry): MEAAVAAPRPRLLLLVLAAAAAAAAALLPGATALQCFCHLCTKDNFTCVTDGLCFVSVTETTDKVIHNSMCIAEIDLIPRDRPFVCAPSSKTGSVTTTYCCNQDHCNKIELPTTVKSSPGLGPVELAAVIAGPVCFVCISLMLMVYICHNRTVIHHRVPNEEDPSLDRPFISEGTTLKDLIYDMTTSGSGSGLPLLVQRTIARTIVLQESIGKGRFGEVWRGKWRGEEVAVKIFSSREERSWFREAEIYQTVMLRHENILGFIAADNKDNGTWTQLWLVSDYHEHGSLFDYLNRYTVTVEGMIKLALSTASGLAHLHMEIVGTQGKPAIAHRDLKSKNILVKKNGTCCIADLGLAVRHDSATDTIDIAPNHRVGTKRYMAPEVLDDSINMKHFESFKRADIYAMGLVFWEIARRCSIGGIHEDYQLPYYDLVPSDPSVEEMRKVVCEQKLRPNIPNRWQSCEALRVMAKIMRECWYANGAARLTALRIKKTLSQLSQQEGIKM
Description: Inhibition of ALK5 (unknown origin) expressed in HEK293 cells transfected with CAGA-luciferase and Renilla luciferase reporter measured after 24 hrs by dual luciferase reporter assay

[2] = molecular target: Bone morphogenetic protein receptor type-1A (Homo sapiens) (UniProt P36894); experiment: Inhibition of ALK3 (unknown origin) at 1 uM
[3] = molecular target: Bone morphogenetic protein receptor type-1B (Homo sapiens) (UniProt O00238); experiment: Inhibition of ALK6 (unknown origin) at 1 uM
Bone morphogenetic protein receptor type-1B (Homo sapiens), sequence (O00238 whole entry): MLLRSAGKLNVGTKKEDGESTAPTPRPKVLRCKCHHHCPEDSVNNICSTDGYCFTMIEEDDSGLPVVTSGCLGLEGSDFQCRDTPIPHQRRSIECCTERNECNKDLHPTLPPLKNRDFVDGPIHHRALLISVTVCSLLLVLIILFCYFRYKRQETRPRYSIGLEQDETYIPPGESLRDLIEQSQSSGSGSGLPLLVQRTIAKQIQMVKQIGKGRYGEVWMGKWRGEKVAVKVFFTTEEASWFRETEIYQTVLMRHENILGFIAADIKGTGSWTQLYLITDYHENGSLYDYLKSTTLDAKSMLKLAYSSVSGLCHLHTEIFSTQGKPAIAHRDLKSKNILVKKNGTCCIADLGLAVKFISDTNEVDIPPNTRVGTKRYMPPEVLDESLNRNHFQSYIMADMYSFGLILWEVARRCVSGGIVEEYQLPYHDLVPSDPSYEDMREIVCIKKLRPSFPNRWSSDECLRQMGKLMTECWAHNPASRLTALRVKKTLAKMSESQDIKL

[4] = molecular target: T2, Serine/threonine-protein kinase A-Raf (Homo sapiens) (UniProt P10398); experiment: Inhibition of ARAF (unknown origin) at 1 uM
T2 sequence (whole entry): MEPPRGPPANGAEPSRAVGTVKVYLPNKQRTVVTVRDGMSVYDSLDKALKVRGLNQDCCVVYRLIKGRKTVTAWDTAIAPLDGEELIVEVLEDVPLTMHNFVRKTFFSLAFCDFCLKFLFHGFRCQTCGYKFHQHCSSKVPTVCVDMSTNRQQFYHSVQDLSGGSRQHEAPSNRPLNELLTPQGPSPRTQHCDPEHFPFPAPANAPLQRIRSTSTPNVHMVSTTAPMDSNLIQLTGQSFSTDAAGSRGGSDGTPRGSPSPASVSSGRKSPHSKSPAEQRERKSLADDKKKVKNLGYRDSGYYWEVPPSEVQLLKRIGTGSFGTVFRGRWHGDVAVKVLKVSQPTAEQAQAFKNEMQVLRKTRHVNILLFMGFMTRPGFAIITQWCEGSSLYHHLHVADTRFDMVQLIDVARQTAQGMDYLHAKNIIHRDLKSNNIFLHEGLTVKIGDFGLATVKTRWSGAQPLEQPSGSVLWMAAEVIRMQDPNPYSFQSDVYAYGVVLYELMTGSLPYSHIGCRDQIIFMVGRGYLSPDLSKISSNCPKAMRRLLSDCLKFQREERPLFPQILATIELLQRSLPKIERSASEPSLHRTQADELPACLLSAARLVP

[5] = molecular target: Mitogen-activated protein kinase kinase kinase kinase 4 (Homo sapiens) (UniProt O95819); experiment: Inhibition of MAP4K4 (unknown origin) at 1 uM
Mitogen-activated protein kinase kinase kinase kinase 4 (Homo sapiens), sequence (O95819 2-1239 limits assumed): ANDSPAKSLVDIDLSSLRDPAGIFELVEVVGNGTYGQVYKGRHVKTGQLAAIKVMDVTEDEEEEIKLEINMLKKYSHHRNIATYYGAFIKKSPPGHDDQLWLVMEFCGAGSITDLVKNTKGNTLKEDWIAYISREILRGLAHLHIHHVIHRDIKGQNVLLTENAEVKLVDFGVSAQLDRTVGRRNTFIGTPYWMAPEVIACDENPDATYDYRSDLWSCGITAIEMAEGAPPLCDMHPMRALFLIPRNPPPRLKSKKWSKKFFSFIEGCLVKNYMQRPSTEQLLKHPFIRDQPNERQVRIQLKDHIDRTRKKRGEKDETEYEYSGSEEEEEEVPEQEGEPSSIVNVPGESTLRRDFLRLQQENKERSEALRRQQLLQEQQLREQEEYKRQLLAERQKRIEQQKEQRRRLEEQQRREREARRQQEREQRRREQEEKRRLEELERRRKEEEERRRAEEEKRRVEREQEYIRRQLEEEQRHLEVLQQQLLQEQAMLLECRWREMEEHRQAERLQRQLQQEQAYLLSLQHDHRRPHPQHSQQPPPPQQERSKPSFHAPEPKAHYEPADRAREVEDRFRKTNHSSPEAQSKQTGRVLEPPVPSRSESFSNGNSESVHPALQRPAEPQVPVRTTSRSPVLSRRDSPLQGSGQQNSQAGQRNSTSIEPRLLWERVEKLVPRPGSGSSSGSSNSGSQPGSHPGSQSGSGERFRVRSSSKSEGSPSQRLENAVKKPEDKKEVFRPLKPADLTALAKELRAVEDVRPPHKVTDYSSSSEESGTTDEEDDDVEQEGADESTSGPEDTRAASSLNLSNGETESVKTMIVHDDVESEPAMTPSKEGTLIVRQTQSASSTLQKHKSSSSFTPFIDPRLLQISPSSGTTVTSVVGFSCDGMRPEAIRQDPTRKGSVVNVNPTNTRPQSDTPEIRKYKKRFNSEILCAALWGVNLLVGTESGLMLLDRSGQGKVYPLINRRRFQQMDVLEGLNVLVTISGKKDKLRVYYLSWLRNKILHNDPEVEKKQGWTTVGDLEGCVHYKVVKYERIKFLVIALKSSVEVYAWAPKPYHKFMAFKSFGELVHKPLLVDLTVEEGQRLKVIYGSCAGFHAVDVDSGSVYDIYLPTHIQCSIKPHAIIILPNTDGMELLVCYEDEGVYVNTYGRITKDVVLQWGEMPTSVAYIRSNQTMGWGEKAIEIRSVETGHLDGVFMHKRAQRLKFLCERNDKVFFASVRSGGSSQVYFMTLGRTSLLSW

[6] = molecular target: Misshapen-like kinase 1 (Homo sapiens) (UniProt Q8N4C8); experiment: Inhibition of MINK (unknown origin) at 1 uM
Misshapen-like kinase 1 (Homo sapiens), sequence (Q8N4C8 whole entry, looked up): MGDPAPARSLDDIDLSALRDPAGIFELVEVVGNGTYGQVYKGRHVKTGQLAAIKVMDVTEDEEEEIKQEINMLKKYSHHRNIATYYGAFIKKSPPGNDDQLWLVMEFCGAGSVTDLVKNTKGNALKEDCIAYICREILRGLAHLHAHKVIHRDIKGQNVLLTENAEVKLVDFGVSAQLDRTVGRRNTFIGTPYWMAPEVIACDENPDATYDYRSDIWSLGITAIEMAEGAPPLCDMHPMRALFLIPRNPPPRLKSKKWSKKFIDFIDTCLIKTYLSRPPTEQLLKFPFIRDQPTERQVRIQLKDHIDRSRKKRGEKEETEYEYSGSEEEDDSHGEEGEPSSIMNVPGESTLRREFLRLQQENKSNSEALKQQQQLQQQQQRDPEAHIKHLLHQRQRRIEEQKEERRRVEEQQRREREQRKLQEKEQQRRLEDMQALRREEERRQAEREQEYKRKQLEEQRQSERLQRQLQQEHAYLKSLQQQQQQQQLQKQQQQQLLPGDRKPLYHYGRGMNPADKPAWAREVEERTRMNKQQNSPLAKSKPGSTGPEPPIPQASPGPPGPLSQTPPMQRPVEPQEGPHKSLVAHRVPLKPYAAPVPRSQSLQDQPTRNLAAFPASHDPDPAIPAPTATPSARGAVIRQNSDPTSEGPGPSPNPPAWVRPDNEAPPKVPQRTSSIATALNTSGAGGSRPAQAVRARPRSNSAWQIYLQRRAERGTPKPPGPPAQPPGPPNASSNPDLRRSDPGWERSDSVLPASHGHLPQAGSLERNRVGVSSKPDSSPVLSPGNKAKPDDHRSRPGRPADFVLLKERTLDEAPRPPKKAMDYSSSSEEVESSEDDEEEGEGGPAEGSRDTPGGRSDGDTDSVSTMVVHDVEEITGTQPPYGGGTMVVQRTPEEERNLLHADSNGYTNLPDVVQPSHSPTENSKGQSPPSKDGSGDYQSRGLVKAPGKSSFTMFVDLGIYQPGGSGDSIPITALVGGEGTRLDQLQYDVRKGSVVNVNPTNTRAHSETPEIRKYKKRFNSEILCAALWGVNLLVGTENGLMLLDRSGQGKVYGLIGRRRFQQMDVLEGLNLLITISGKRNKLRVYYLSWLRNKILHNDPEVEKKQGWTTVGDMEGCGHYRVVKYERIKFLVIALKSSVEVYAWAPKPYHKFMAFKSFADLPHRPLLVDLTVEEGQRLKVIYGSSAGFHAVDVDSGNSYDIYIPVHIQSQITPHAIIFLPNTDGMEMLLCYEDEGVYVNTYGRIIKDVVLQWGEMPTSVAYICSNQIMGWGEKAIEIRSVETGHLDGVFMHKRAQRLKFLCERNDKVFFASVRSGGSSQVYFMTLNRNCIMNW

[7] = molecular target: T3, Non-receptor tyrosine-protein kinase TNK1 (Homo sapiens) (UniProt Q13470); experiment: Inhibition of TNK1 (unknown origin) at 1 uM
T3 sequence (whole entry): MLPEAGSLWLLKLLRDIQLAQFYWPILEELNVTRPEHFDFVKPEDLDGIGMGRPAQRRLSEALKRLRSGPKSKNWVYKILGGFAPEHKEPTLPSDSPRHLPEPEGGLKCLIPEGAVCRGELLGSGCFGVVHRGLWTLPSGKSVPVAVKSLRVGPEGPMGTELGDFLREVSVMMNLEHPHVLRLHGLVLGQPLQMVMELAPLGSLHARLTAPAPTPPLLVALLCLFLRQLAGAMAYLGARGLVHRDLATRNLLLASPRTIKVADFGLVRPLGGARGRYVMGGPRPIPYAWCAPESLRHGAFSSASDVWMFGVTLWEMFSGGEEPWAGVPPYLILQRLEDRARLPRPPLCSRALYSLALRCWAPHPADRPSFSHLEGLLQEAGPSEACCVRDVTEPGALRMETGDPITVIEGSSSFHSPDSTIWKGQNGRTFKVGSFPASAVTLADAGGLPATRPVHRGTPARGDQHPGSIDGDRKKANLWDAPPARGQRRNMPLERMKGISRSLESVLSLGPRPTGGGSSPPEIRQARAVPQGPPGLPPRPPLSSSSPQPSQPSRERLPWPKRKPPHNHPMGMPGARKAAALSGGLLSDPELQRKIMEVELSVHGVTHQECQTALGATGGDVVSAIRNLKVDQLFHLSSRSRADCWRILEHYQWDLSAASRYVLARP

[8] = molecular target: Activin receptor type-1 (Homo sapiens, UniProt Q04771, R206H); experiment: Inhibition of human ALK2 R206H mutant using casein as substrate in presence of 10 uM [gamma33P] ATP by radioactive assay
Activin receptor type-1 (Homo sapiens, UniProt Q04771, R206H), sequence (Q04771 21-509 R206H limits assumed): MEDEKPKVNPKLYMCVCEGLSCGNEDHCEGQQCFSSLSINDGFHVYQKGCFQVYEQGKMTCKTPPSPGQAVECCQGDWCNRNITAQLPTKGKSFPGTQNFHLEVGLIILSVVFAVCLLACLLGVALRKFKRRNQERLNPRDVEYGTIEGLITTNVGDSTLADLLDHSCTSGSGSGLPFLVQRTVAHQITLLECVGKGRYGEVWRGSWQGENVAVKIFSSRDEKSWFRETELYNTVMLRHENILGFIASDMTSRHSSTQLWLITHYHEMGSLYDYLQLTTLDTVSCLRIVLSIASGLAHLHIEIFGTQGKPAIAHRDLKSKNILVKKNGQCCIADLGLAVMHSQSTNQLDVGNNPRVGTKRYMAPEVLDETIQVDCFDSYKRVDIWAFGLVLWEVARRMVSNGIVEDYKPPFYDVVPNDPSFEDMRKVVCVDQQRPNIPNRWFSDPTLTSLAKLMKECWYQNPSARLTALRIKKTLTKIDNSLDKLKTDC

[9] = molecular target: Activin receptor type-1 (Homo sapiens, UniProt Q04771, R258G); experiment: Inhibition of ALK2 R258G mutant (unknown origin)
Activin receptor type-1 (Homo sapiens, UniProt Q04771, R258G), sequence (Q04771 21-509 R258G limits assumed): as the sequence (Q04771 21-509 R206H limits assumed) above, with H186R, R238G counted along it

[10] = molecular target: Voltage-gated inwardly rectifying potassium channel KCNH2 (Homo sapiens, UniProt Q12809)
Voltage-gated inwardly rectifying potassium channel KCNH2, sequence (Q12809 whole entry): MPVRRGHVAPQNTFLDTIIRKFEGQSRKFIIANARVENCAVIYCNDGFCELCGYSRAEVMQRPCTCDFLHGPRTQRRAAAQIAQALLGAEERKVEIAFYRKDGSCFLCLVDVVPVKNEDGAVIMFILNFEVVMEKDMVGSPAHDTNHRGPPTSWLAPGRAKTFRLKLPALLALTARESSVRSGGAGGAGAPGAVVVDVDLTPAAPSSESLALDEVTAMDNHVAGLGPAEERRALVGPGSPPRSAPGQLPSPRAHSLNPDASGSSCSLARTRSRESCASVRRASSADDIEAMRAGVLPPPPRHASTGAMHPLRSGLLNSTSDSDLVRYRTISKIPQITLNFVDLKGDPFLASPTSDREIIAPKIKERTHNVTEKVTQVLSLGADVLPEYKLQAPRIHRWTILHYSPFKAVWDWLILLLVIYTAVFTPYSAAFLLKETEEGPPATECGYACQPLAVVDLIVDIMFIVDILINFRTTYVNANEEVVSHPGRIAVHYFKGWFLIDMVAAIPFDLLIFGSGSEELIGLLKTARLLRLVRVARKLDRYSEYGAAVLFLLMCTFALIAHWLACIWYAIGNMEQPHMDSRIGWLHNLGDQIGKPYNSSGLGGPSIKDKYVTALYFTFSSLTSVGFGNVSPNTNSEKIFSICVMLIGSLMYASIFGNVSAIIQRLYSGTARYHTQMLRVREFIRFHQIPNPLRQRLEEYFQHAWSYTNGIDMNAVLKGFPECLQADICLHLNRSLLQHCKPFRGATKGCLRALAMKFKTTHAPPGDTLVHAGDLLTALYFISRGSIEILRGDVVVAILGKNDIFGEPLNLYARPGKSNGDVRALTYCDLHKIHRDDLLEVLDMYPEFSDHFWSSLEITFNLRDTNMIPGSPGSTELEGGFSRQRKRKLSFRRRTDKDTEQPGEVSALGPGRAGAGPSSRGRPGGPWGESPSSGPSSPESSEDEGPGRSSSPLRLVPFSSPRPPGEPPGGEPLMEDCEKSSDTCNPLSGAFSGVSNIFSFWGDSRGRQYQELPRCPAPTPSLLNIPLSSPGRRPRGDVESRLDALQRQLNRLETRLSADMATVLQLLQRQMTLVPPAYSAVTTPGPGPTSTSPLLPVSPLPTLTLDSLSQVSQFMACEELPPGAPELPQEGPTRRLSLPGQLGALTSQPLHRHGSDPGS
Description: Inhibition of human ERG expressed in HEK293 cells measured after 5 mins by whole cell patch clamp method

[11] = mouse, in vivo, po, 10 mg/kg, 24 h
[12] = mouse, in vivo, po, 10 mg/kg, 24 h; remark: listed apart in the source
[13] = mouse, in vivo, po, 10 mg/kg, 24 h; remark: listed apart in the source
Description: Half life in CB17 SCID mouse at 10 mg/kg, po measured up to 24 hrs by LC-MS/MS analysis

[14] = mouse, microsomes, 1 h, 1 µM
Description: Microsomal stability in CD-1 mouse liver microsomes assessed as parent compound remaining at 1 uM and 37 degree C measured after 60 mins in presence of NADP+ by LC-QTOF/MS analysis

[15] = human, microsomes, 1 h, 1 µM
Description: Microsomal stability in human liver microsomes assessed as parent compound remaining at 1 uM and 37 degree C measured after 60 mins in presence of NADP+ by LC-QTOF/MS analysis

[16] = in vitro; settings: human, Caco-2
Description: Apparent permeability across apical to basolateral membrane in human Caco2 cells at 5 uM incubated for 120 mins in orbital shaker by LC-QTOF/MS analysis

[17] = in vitro; settings: human, Caco-2; remark: listed apart in the source
Description: Apparent permeability across basolateral to apical membrane in human Caco2 cells at 5 uM incubated for 120 mins in orbital shaker by LC-QTOF/MS analysis

## COc1cc(-c2cncc(-c3ccc(N4CCN(C)CC4)cc3)c2C)cc(F)c1C(N)=O
[1]
  IC50: 4300 nM
[2]
  inhibition: Active
[3]
  inhibition: Active
[4]
  inhibition: Active
[5]
  inhibition: Active
[6]
  inhibition: Active
[7]
  inhibition: Active
[8]
  IC50: 19 nM
[9]
  IC50: 17 nM
[10]
  IC50: > 30000 nM
[11]
  Cmax: 2140 ng/mL
[12]
  AUC: 4056 ng·h/mL
[13]
  t1/2: 2.56 h
[14]
  Stability: Stable
[15]
  Stability: Stable
[16]
  Papp A→B at 2 h, 5 µM: 5.5 ×10⁻⁶ cm/s
[17]
  Papp B→A at 2 h, 5 µM: 16.2 ×10⁻⁶ cm/s
